Measured values: patent publication US9107909B2, “Materials and methods to enhance hematopoietic stem cells engraftment procedures” (priority 2008, dated 2015)

How the values were obtained:
CXCR4 mRNA = test: QRT-PCR of CXCR4 mRNA; type: cell-based; settings: for time post-exposure of (maximal) CXCR4 mRNA upregulation: vs vehicle
Method: Total RNA was obtained using the absolutely RNA purification kit (Stratagene, La Jolla, Calif.). A constant amount of RNA was reverse transcribed with random primers (Promega, Madison, Wis.) and MMLV-reverse transcriptase (Promega) in a volume of 50 microLiter with 1 milliMolar dNTPs and RNase inhibitor as described (Fukuda and Pelus, 2001). DNase and RNase free water (Ambion, Austin, Tex.) was added to obtain a final concentration equivalent of 10 nanogram RNA/microLiter and 5 microLiter used for QRT-PCR. Primers for SYBR Green QRTPCR were designed to produce an amplicon size of 75-150 bp. QRT-PCR was performed in a total volume of 30 microLiter using Platinum SYBR Green qPCR supermix UDG with Rox (Invitrogen, Carlsbad, Calif.) in an ABI-7000 (Applied Biosystems, Carlsbad, Calif.), with an activation step of 50° C. for 2 min, denaturation at 95° C. for 2 min and amplification for 45 cycles at 95° C.-15 sec, 50° C.-30 sec, 72° C.-30 sec, followed by dissociation to confirm that only one product was obtained.
Referring now to FIG. 4A, the stromal-cell-derived factor-1 alpha (SDF-1a)/CXCR4 axis has been implicated in HSPC trafficking and homing. The study evaluated whether the improved homing of dmPGE2-treated HSPC was the result of increased SDF-1a/CXCR4 signalling.
(§1) To evaluate CXCR4, Lineage^neg mouse bone marrow cells or CD34^+ UCB were treated on ice with either 1 microMolar dmPGE2 or vehicle control for 2 hours, washed, and then cultured in RPMI-1640/10% HI-FBS at 37° C. for 24 hours, stained for SKL (murine cells) or CD34 (human) and CXCR4 and analyzed by FACS. Referring now to FIG. 4A, CXCR4 expression on murine KL and SKL cells and human CD34^+ UCB cells 24 hours after treatment with dmPGE2. Data are expressed as Mean±SEM % change in mean fluorescence intensity (MFI) of CXCR4 due to treatment with dmPGE2 or vehicle (n=3).

[1] = tested on: Survivin in murine SKL cells; test: Intracellular Survivin by FACS, murine SKL cells; type: cell-based, mouse; settings: vs control; for increase in Survivin protein, murine SKL cells: 24 hours post-pulse
Excerpt: All antibodies were purchased from BD Biosciences unless otherwise noted. For detection and sorting of murine KL and SKL cells, streptavidin conjugated with PE-Cy7 (to stain for biotinylated MACS lineage antibodies (Miltenyi Biotech, Auburn, Calif.)), c-kit-APC, Sca-1-PE or APC-Cy7, CD45. 1-PE and CD45.2-FITC were used. UCB CD34^+ cells were detected using anti-human-CD34-APC. For multilineage analysis, APC-Cy7-Mac-1, PE-Cy7-B-220 and APC-CD3 were used. EP receptors were detected with anti EP1, EP2, EP3 and EP4 rabbit IgG (Cayman Chemicals) and secondary staining with FITC-goat-anti-rabbit IgG (Southern Biotech, Birmingham, Ala.). CXCR4 expression was analyzed using streptavidin-PECy7, c-kit-APC, Sca-1-APC-Cy7, and CXCR4-PE. Apoptosis was measured with FITC-Annexin-V. For Survivin and active caspase-3 detection, cells were permeabilized and fixed using the CytoFix/CytoPerm kit (BD) and stained with anti-active-caspase-3-FITC Flow Kit (BD) or Survivin-PE (R&D Systems).
Expression of EP receptors, CXCR4 and Survivin Replicate Lin^neg cell samples from CD45.2 mice were stained for SKL and each of the EP receptors and surface receptor expression on KL and SKL cells determined by FACS. For human EP receptors, UCB was obtained from Wishard Hospital, Indianapolis, Ind. with Institutional Review Board approval. Mononuclear cells were isolated on Ficoll-Paque™ Plus (Amersham Biosciences) and CD34^+ cells positively selected with MACS microbeads (Miltenyi Biotech) (Fukuda and Pelus, 2001). Replicate cells were stained for CD34 and each of the EP receptors and surface expression determined by FACS. To evaluate CXCR4, Survivin and active caspase-3, Lin^neg cells or CD34^+ UCB were treated on ice with either 1 microMolar dmPGE2 or vehicle control for 2 hours, washed, and then cultured in RPMI-1640+10% FBS at 37° C. for 24 hours. Cells were stained for SKL (murine cells) and CXCR4, Survivin, and/or active caspase-3, as described above, and analyzed by FACS. […]

[2] = tested on: CXCR4 on murine KL and SKL cells; test: CXCR4 surface expression by FACS after pulse exposure, murine cells; type: cell-based, mouse; settings: for CXCR4 expression on KL and SKL cells: pulse-exposure of Lin neg cells, 24 hours
Excerpt: Expression of EP receptors, CXCR4 and Survivin Replicate Lin^neg cell samples from CD45.2 mice were stained for SKL and each of the EP receptors and surface receptor expression on KL and SKL cells determined by FACS. For human EP receptors, UCB was obtained from Wishard Hospital, Indianapolis, Ind. with Institutional Review Board approval. Mononuclear cells were isolated on Ficoll-Paque™ Plus (Amersham Biosciences) and CD34^+ cells positively selected with MACS microbeads (Miltenyi Biotech) (Fukuda and Pelus, 2001). Replicate cells were stained for CD34 and each of the EP receptors and surface expression determined by FACS. To evaluate CXCR4, Survivin and active caspase-3, Lin^neg cells or CD34^+ UCB were treated on ice with either 1 microMolar dmPGE2 or vehicle control for 2 hours, washed, and then cultured in RPMI-1640+10% FBS at 37° C. for 24 hours. Cells were stained for SKL (murine cells) and CXCR4, Survivin, and/or active caspase-3, as described above, and analyzed by FACS.
as §1

homed SKL cells = test: In vivo cell cycle analysis (BrdU) of homed SKL cells; design: species or system mouse; settings: BrdU treated recipient mice, 16 hours, vs vehicle pulsed cells
Method: For in vitro cell cycle analysis, Lin^neg cells were treated with either 1 microMolar dmPGE2 or vehicle for 2 hours, washed, and cultured in Stem Cell Pro Media (Stem Cell Technologies) with rmSCF (50 ng/ml) (R&D Systems, Minneapolis, Minn.), rhFlt-3 and rhTPO (100 ng/ml each) (Immunex, Seattle, Wash.). After 20 hours, cells were stained for SKL, fixed and permeabilized, and stained with 7AAD (BD Biosciences, San Jose, Calif.). The proportion of SKL cells in S+G2/M phase was determined by measuring DNA content by FACS. […] The proportion of homed (CD45.1^+) SKL cells that were BrdU^+ was determined by FACS in individual mice.
To confirm the effect of dmPGE2 on enhancement of HSPC cell cycle observed in vitro, marrow cells were pulsed with dmPGE2 and injected into congenic mice treated with BrdU post-transplant, and the proportion of donor BrdU^+ SKL cells was determined 16 hours later.
CD45.1 Lineage^neg bone marrow cells were treated with dmPGE2 or vehicle and transplanted into lethally irradiated CD45.2 mice. […] Bone marrow was analyzed 16 hours later and the proportion of CD45.1^+, SKL cells that were BrdU^+ was analyzed by FACS analysis. […] Bone marrow was analyzed 16 hours later and the proportion of CD45.1^+, SKL cells that were BrdU^+ was analyzed by FACS analysis. […]

[3] = tested on: CXCR4 on human CD34+ UCB cells; test: CXCR4 surface expression by FACS after pulse exposure, human cells; type: cell-based
Excerpt: Expression of EP receptors, CXCR4 and Survivin Replicate Lin^neg cell samples from CD45.2 mice were stained for SKL and each of the EP receptors and surface receptor expression on KL and SKL cells determined by FACS. For human EP receptors, UCB was obtained from Wishard Hospital, Indianapolis, Ind. with Institutional Review Board approval. Mononuclear cells were isolated on Ficoll-Paque™ Plus (Amersham Biosciences) and CD34^+ cells positively selected with MACS microbeads (Miltenyi Biotech) (Fukuda and Pelus, 2001). Replicate cells were stained for CD34 and each of the EP receptors and surface expression determined by FACS. […] Cells were stained for SKL (murine cells) and CXCR4, Survivin, and/or active caspase-3, as described above, and analyzed by FACS.
To evaluate CXCR4, Lineage^neg mouse bone marrow cells or CD34^+ UCB were treated on ice with either 1 microMolar dmPGE2 or vehicle control for 2 hours, washed, and then cultured in RPMI-1640/10% HI-FBS at 37° C. for 24 hours, stained for SKL (murine cells) or CD34 (human) and CXCR4 and analyzed by FACS. […] Data are expressed as Mean±SEM % change in mean fluorescence intensity (MFI) of CXCR4 due to treatment with dmPGE2 or vehicle (n=3).

Structure (SMILES) | time post-exposure of (maximal) CXCR4 mRNA upregulation (CXCR4 mRNA) | increase in Survivin protein, murine SKL cells [1] | increase in CXCR4 expression on SKL ([2]; after PGE2 exposure) | CXCR4 expression on KL and SKL cells [2] | donor (homed) SKL cells in S+G2/M phase (homed SKL cells) | increase in CXCR4 expression on CD34+ UCB ([3]; after PGE2 exposure) | increase in CXCR4 mRNA (CXCR4 mRNA) | Survivin mRNA ([1]; QRT-PCR) | CXCR4 expression on CD34+ UCB cells ([3]; pulse exposure, 24 hours)
CCCCC[C@H](O)/C=C/[C@H]1[C@H](O)CC(=O)[C@@H]1C/C=C\CCCC(=O)O [PGE2, Prostaglandin E2] | 6 h | 1.7 fold | 26.8% | increased | ~2 fold | 17.3% | – | – | –
CCCCC(C)(C)[C@H](O)/C=C/[C@H]1[C@H](O)CC(=O)[C@@H]1C/C=C\CCCC(=O)O [dmPGE2, 16,16-dimethyl prostaglandin E2] | 6 h | 1.7 fold | – | increased CXCR4 expression | ~2 fold | – | 2.65 fold | elevated Survivin mRNA | increased CXCR4 expression
